# In ChEMBL document CHEMBL1136180, “Isolation of bisindole alkaloids that inhibit the cell cycle from Myxomycetes Arcyria ferruginea and Tubifera casparyi” (Bioorg Med Chem Lett, 2003):
# Key:
# HeLa [1] = test: Compound was tested at concentration of 280 nM for HeLa cell cycle inhibition; arrest of G2/M phase; type: functional, cell-based; settings: Homo sapiens
# HeLa [2] = test: Compound was tested at concentration of 28 nM for HeLa cell cycle inhibition; arrest of G1 phase; type: functional, cell-based; settings: Homo sapiens
structure (smiles),measurement,setting,value
O=C1NC(=O)c2c1c1c3ccc(O)cc3[nH]c1c1[nH]c3cc(O)ccc3c21,Concentration,HeLa [1],100 ng/mL
same,Concentration,HeLa [2],10 ng/mL
